{
  "source": "patent US20250376472A1",
  "about": "“3-(PHENYLSULFONYL)-[1,2,3]TRIAZOLO[1,5A]QUINAZOLIN-5(4H)-ONE DERIVATIVES” (priority 2022, published 2025)",
  "key": {"AgrA [1]": {"biological_target": "T1, AgrA (Staphylococcus aureus, UniProt P0A0I7)", "T1 construct": "endogenous in cells; host or cells: S. aureus USA300 strain UAMS-1625 carrying a P3-lacZ reporter plasmid", "T1 sequence (P0A0I7 whole entry)": "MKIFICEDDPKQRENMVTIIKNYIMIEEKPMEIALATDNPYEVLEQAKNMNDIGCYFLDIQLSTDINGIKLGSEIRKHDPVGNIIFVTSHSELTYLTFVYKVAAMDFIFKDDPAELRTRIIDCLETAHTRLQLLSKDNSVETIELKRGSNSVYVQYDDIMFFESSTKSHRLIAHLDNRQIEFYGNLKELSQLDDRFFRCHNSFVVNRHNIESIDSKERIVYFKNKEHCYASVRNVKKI", "test": "cell-based", "design": "species or system S. aureus", "details": "for Ratio IC50 (in presence of HSA)/IC50 (in absence of HSA): 40 mg/mL HSA versus no HSA"}, "AgrA [2]": {"biological_target": "T1, AgrA", "details": "all four agr groups; cited from earlier work"}, "S. aureus [3]": {"system": "S. aureus", "details": "after multiple passages with Savirin; cited from earlier work"}, "S. aureus [4]": {"system": "S. aureus", "details": "cited from earlier work"}, "MRSA USA300 type strain": {"system": "MRSA USA300 type strain", "details": "mice infected with MRSA USA300 type strain, applied multiple times; cited from earlier work"}, "red blood cell (RBC)": {"system": "red blood cell (RBC)", "details": "cited from earlier work"}, "[5]": {"details": "IC50 at 40 mg/mL HSA, LB medium supplemented with human serum albumin 40 mg/mL"}, "[6]": {"details": "IC50 without HSA, LB medium, no human serum albumin, 18 hours incubation"}, "[7]": {"details": "LB medium supplemented with human serum albumin 40 mg/mL"}, "[8]": {"details": "LB medium, no human serum albumin, 18 hours incubation"}},
  "data": [
    {"smiles": "Cc1ccc(S(=O)(=O)c2nnn3c2[nH]c(=O)c2ccc(N4CCN(CC(=O)N5CC(N)C5)CC4)cc23)c(C)c1", "note": "[Compound 139]", "values": [
      {"measurement": "IC50", "setting": "AgrA [1]; [5]", "value": "< 18.2", "unit": "µM"},
      {"measurement": "IC50", "setting": "AgrA [1]; [6]", "value": "1.82 to 9.08", "unit": "µM"}
    ]},
    {"smiles": "Cc1ccc(S(=O)(=O)c2nnn3c2[nH]c(=O)c2ccc(N4CCN(CC(=O)NC5CCNCC5)CC4)cc23)c(C)c1", "note": "[Compound 140]", "values": [
      {"measurement": "IC50", "setting": "AgrA [1]; [5]", "value": "17.3 to 86.4", "unit": "µM"},
      {"measurement": "IC50", "setting": "AgrA [1]; [6]", "value": "1.73 to 8.64", "unit": "µM"}
    ]},
    {"smiles": "Cc1ccc(S(=O)(=O)c2nnn3c2[nH]c(=O)c2ccc(N4CCN(CC(=O)N5CCC(N)CC5)CC4)cc23)c(C)c1", "note": "[Compound 141]", "values": [
      {"measurement": "IC50", "setting": "AgrA [1]; [5]", "value": "< 17.3", "unit": "µM"},
      {"measurement": "IC50", "setting": "AgrA [1]; [6]", "value": "1.73 to 8.64", "unit": "µM"}
    ]},
    {"smiles": "Cc1ccc(S(=O)(=O)c2nnn3c2[nH]c(=O)c2ccc(N4CCN(CC(=O)NC5CCCNC5)CC4)cc23)c(C)c1", "note": "(stereo not shown) [Compound 142]", "values": [
      {"measurement": "IC50", "setting": "AgrA [1]; [5]", "value": "< 17.3", "unit": "µM"},
      {"measurement": "IC50", "setting": "AgrA [1]; [6]", "value": "1.73 to 8.64", "unit": "µM"}
    ]},
    {"smiles": "Cc1ccc(S(=O)(=O)c2nnn3c2[nH]c(=O)c2ccc(N4CCN(CC(=O)N5CCCC(N)C5)CC4)cc23)c(C)c1", "note": "(stereo not shown) [Compound 143]", "values": [
      {"measurement": "Ratio IC50 (in presence of HSA)/IC50 (in absence of HSA)", "setting": "AgrA [1]", "value": "+++ (+++: ratio ≤ 25)"},
      {"measurement": "IC50 at 40 mg/mL HSA", "setting": "AgrA [1]; [7]", "value": "+++ (+++: IC50 ≤ 10 μg/mL)"},
      {"measurement": "IC50 without HSA", "setting": "AgrA [1]; [8]", "value": "++ (++: 1 μg/mL < IC50 ≤ 5 μg/mL)"}
    ]},
    {"smiles": "Cc1ccc(S(=O)(=O)c2nnn3c2[nH]c(=O)c2ccc(N4CCN(CC(=O)N5CCCC(CN)C5)CC4)cc23)c(C)c1", "note": "(stereo not shown) [Compound 144]", "values": [
      {"measurement": "IC50", "setting": "AgrA [1]; [5]", "value": "< 16.9", "unit": "µM"},
      {"measurement": "IC50", "setting": "AgrA [1]; [6]", "value": "1.69 to 8.44", "unit": "µM"}
    ]},
    {"smiles": "Cc1ccc(S(=O)(=O)c2nnn3c2[nH]c(=O)c2ccc(N4CCN(CC(=O)N5CCCCC5CN)CC4)cc23)c(C)c1", "note": "(stereo not shown) [Compound 145]", "values": [
      {"measurement": "IC50", "setting": "AgrA [1]; [5]", "value": "16.9 to 84.4", "unit": "µM"},
      {"measurement": "IC50", "setting": "AgrA [1]; [6]", "value": "1.69 to 8.44", "unit": "µM"}
    ]},
    {"smiles": "Cc1ccc(S(=O)(=O)c2nnn3c2[nH]c(=O)c2ccc(N4CCN(CC(=O)N5CCCC(CCN)C5)CC4)cc23)c(C)c1", "note": "(stereo not shown) [Compound 146]", "values": [
      {"measurement": "Ratio IC50 (in presence of HSA)/IC50 (in absence of HSA)", "setting": "AgrA [1]", "value": "+++ (+++: ratio ≤ 25)"},
      {"measurement": "IC50 at 40 mg/mL HSA", "setting": "AgrA [1]; [7]", "value": "+++ (+++: IC50 ≤ 10 μg/mL)"},
      {"measurement": "IC50 without HSA", "setting": "AgrA [1]; [8]", "value": "++ (++: 1 μg/mL < IC50 ≤ 5 μg/mL)"}
    ]},
    {"smiles": "Cc1ccc(S(=O)(=O)c2nnn3c2[nH]c(=O)c2ccc(N4CCN(CC(=O)N5CCC(CN)CC5)CC4)cc23)c(C)c1", "note": "[Compound 147]", "values": [
      {"measurement": "IC50", "setting": "AgrA [1]; [5]", "value": "16.9 to 84.4", "unit": "µM"},
      {"measurement": "IC50", "setting": "AgrA [1]; [6]", "value": "1.69 to 8.44", "unit": "µM"}
    ]},
    {"smiles": "Cc1ccc(S(=O)(=O)c2nnn3c2[nH]c(=O)c2ccc(N4CCN(CC(=O)N5C[C@H]6CNC[C@H]6C5)CC4)cc23)c(C)c1", "note": "[Compound 153]", "values": [
      {"measurement": "IC50", "setting": "AgrA [1]; [5]", "value": "16.9 to 84.6", "unit": "µM"},
      {"measurement": "IC50", "setting": "AgrA [1]; [6]", "value": "1.69 to 8.46", "unit": "µM"}
    ]},
    {"smiles": "Cc1ccc(S(=O)(=O)c2nnn3c2[nH]c(=O)c2ccc(N4CCCN(CC(=O)N5CCNCC5)CC4)cc23)c(C)c1", "note": "[Compound 161]", "values": [
      {"measurement": "IC50", "setting": "AgrA [1]; [5]", "value": "< 17.3", "unit": "µM"},
      {"measurement": "IC50", "setting": "AgrA [1]; [6]", "value": "1.73 to 8.64", "unit": "µM"}
    ]},
    {"smiles": "Cc1ccc(S(=O)(=O)c2nnn3c2[nH]c(=O)c2ccc(N4CCCN(CCC(=O)N5CCCC5)CC4)cc23)c(C)c1", "note": "[Compound 163]", "values": [
      {"measurement": "IC50", "setting": "AgrA [1]; [5]", "value": "< 17.3", "unit": "µM"},
      {"measurement": "IC50", "setting": "AgrA [1]; [6]", "value": "1.73 to 8.65", "unit": "µM"}
    ]},
    {"smiles": "O=C(CN1CCN(c2ccc3c(=O)[nH]c4c(S(=O)(=O)c5ccc(C(F)(F)F)cc5)nnn4c3c2)CC1)N1CCCC1", "note": "[Compound 164]", "values": [
      {"measurement": "IC50", "setting": "AgrA [1]; [5]", "value": "17 to 84.8", "unit": "µM"},
      {"measurement": "IC50", "setting": "AgrA [1]; [6]", "value": "1.7 to 8.48", "unit": "µM"}
    ]},
    {"smiles": "CC(C)c1ccc(S(=O)(=O)c2nnn3c2[nH]c(=O)c2ccc(N4CCN(CC(=O)N5CCCC5)CC4)cc23)cc1", "note": "[Compound 166]", "values": [
      {"measurement": "Ratio IC50 (in presence of HSA)/IC50 (in absence of HSA)", "setting": "AgrA [1]", "value": "++ (++: 25 < ratio ≤ 125)"},
      {"measurement": "IC50 at 40 mg/mL HSA", "setting": "AgrA [1]; [7]", "value": "++ (++: 10 μg/mL < IC50 ≤ 50 μg/mL)"},
      {"measurement": "IC50 without HSA", "setting": "AgrA [1]; [8]", "value": "+++ (+++: IC50 ≤ 1 μg/mL)"}
    ]},
    {"smiles": "Cc1ccc(S(=O)(=O)c2nnn3c2[nH]c(=O)c2ccc(N4CCCN(CCC(=O)N5CCOCC5)CC4)cc23)c(C)c1", "note": "[Compound 168]", "values": [
      {"measurement": "Ratio IC50 (in presence of HSA)/IC50 (in absence of HSA)", "setting": "AgrA [1]", "value": "+++ (+++: ratio ≤ 25)"},
      {"measurement": "IC50 at 40 mg/mL HSA", "setting": "AgrA [1]; [7]", "value": "+++ (+++: IC50 ≤ 10 μg/mL)"},
      {"measurement": "IC50 without HSA", "setting": "AgrA [1]; [8]", "value": "++ (++: 1 μg/mL < IC50 ≤ 5 μg/mL)"}
    ]},
    {"smiles": "O=C(CN1CCN(c2ccc3c(=O)[nH]c4c(S(=O)(=O)c5ccc(C(F)(F)F)cc5)nnn4c3c2)CC1)N1CCOCC1", "note": "[Compound 169]", "values": [
      {"measurement": "IC50", "setting": "AgrA [1]; [5]", "value": "16.5 to 82.6", "unit": "µM"},
      {"measurement": "IC50", "setting": "AgrA [1]; [6]", "value": "1.65 to 8.26", "unit": "µM"}
    ]},
    {"smiles": "Cc1ccc(S(=O)(=O)c2nnn3c2[nH]c(=O)c2ccc(N4CCN(CC(=O)NCCc5ccncc5)CC4)cc23)c(C)c1", "note": "[Compound 175]", "values": [
      {"measurement": "IC50", "setting": "AgrA [1]; [5]", "value": "16.6 to 83.2", "unit": "µM"},
      {"measurement": "IC50", "setting": "AgrA [1]; [6]", "value": "< 1.66", "unit": "µM"}
    ]},
    {"smiles": "CC(C)c1ccc(S(=O)(=O)c2nnn3c2nc(O)c2ccccc23)cc1", "note": "[Savirin]", "values": [
      {"measurement": "modulation of AgrA-regulated toxin gene transcription (hla, psma, pvl)", "setting": "AgrA [2]", "value": "potent modulator"},
      {"measurement": "resistance development", "setting": "S. aureus [3]", "value": "No resistance was developed"},
      {"measurement": "viability of S. aureus", "setting": "S. aureus [4]", "value": "without affecting viability"},
      {"measurement": "abscess size and dermonecrosis", "setting": "MRSA USA300 type strain", "value": "significant reduction"},
      {"measurement": "exotoxin-induced red blood cell (RBC) lysis", "setting": "red blood cell (RBC)", "value": "inhibited"}
    ]}
  ]
}
